Patent publication US20250073165A1, “OLANZAPINE, COMPOSITIONS THEREOF AND METHODS OF USE THEREOF” (Teva Pharmaceuticals International GmbH, priority 2022, published 2025)

Assays:
[1] = Bulk/tapped density, Ph. Eur. 2.9.34 Method 1, ERWEKA SVM 122; assay type: physicochemical; settings: Table 1
Experimental: Bulk density/tapped density were determined by European Pharmacopoeia 2.9.34. Method 1 (https://www.drugfuture.com/Pharmacopoeia/EP7/DATA/20934E.PDF; PDF downloaded Nov. 14, 2021).
The bulk and tapped densities were determined using the Tapped Density Tester SVM 122 from ERWEKA, equipped with a 100 mL glass cylinder. Approximately 30 g of the powder was carefully poured into the 100 mL measuring cylinder with a funnel. Bulk density was calculated by dividing the amount of powder (in gram) by the measured volume (mL). The tapped density was then determined as follows:
If the difference between V500 and V1250 was bigger than 2 mL, taps were repeated: i.e. tapped another 1250× and repeated until difference was below 2 mL. • Bulk density=sample weight/volume before tapping. • Tapped density=weight/volume after tapping. • Calculation: […]

[2] = Particle size distribution (PSD) by laser diffraction, Malvern Mastersizer 2000; assay type: physicochemical
Experimental: (§1) For the purposes herein, particle size distribution (PSD) is determined as the percent volume, i.e. D(90) and D(3,2) and was measured by laser diffraction using a Malvern Mastersizer 2000 equipped with a Hydro 2000 S dispersion unit.
(§2) The measurements were performed in saturated water dispersion medium (refractive index=[…] (general purpose)). The water was saturated with olanzapine to prevent dissolution of the sample while measuring. Dispersion medium was prepared by adding about 3 gm olanzapine to 1 liter water, sonicating in an ultrasound bath for 30 min and filtering (0.22-0.45 μm). The samples were added as concentrated suspension under stirring until an obscuration rate of 10-20% was reached. The results were values arising from ten measurement cycles with a recirculation time (after sonification) of 30 sec.
(§3) Sample preparation: Samples were prepared as concentrated suspensions. About 50-100 mg of the olanzapine sample was added with a spatula to a small sized glass beaker and several drops of saturated water dispersion medium was added. A paste was obtained by mild mixing, and an additional quantity (1 ml) of saturated water dispersion medium was added in order to obtain a concentrated homogeneous suspension.

[3] = Flow function by FT4 Powder Rheometer, shear test 9 kPa; assay type: physicochemical; settings: 9 kPa shear test, 1 ml cell
Experimental: The flow function (FF) was determined by using FT4 Powder Rheometer, Freeman FT4 instrument, and standard Freeman shear test −9 kPa (using small cell 1 ml), according to the procedure below: • Compact to 9 kPa for 60 s • Pre shear hold 7 kPa for 16 s • Shear test at 7 kPa (Shear at 18°/min for 10°, auto detected peak torque yes) • Pre shear hold 6 kPa for 16 s • Shear test at 6 kPa (Shear at 18°/min for 10°, auto detected peak torque yes) • Pre shear hold 5 kPa for 16 s • Shear test at 5 kPa (Shear at 18°/min for 10°, auto detected peak torque yes) • Pre shear hold 4 kPa for 16 s • Shear test at 4 kPa (Shear at 18°/min for 10°, auto detected peak torque yes) • Pre shear hold 3 kPa for 16 s • Shear test at 3 kPa (Shear at 18°/min for 10°, auto detected peak torque yes)

[4] = PSD of bulk API compared to PSD of API in vial after dry heat sterilization; assay type: physicochemical; settings: for D(3,2) / D(90): Table 3, bulk API or API in vial after dry heat sterilization 150-160° C., two hours, per sample name
Experimental: as §1, §2, §3
Closed and crimped vials filled with API were terminally sterilized at 150-160° C. using dry heat for two hours in dry heat oven SP-470 by Kambič (Slovenia). Additional methods of terminal sterilization include radiation including for example, gamma radiation, X-ray, electron beam and the like with similar results. Alternatively, the API may be prepared aseptically
The manufacturing process for the final drug product includes a terminal sterilization step, and specifically the quality of the bulk API should not be affected by sterilization. Therefore, after the dry heat sterilization, samples of API in vials filled with two batches (with low PSD) were analyzed for PSD and compared to starting API material.

[5] = background statement; cited from earlier work
[6] = Table 4, listed as Olanzapine S3-020
[7] = Table 4, listed as Olanzapine M1-010
[8] = Table 4, listed as Olanzapine S2-920
[9] = Table 4, listed as Olanzapine M7-121
[10] = Table 4, listed as Olanzapine M6-020
[11] = Table 4, listed as Olanzapine S1-220
[12] = Table 4, listed as Olanzapine S3-221
[13] = Table 4, listed as Olanzapine S1-920

SMILES | TD (tapped density) [1] | D(3,2) ([2]; Table 1, bulk API batch) | D(90) ([2]; Table 1, bulk API batch) | Flow function [3] | D(3,2) [4] | D(90) [4] | other results
Cc1cc2c(s1)Nc1ccccc1N=C2N1CCN(C)CC1 [Batch S3-020, 2-methyl-4-(4-methyl-1-piperazinyl)-10H-thieno[2,3-b][1,5]benzodiazepine] | 0.28 g/mL | 5.4 μm | 17 μm | 1.3 | 5.2 μm | 16 μm | D(90) [2, 6]: 16 μm; D(100) [2, 6]: 90 μm; PSD curves before and after sterilization ([4]; FIG. 4B): highly similar
Cc1cc2c(s1)Nc1ccccc1N=C2N1CCN(C)CC1 [Olanzapine S2-121, 2-methyl-4-(4-methyl-1-piperazinyl)-10H-thieno[2,3-b][1,5]benzodiazepine] | – | – | – | – | – | – | D(90) ([2]; Table 4): 27 μm; D(100) ([2]; Table 4): 196 μm
Cc1cc2c(s1)Nc1ccccc1N=C2N1CCN(C)CC1 [Olanzapine, 2-methyl-4-(4-methyl-1-piperazinyl)-10H-thieno[2,3-b][1,5]benzodiazepine] | – | – | – | – | – | – | Water solubility [5]: poor
Cc1cc2c(s1)Nc1ccccc1N=C2N1CCN(C)CC1 [Batch M1-010, 2-methyl-4-(4-methyl-1-piperazinyl)-10H-thieno[2,3-b][1,5]benzodiazepine] | 0.37 g/mL | 4.2 μm | 13 μm | 1.4 | 4.7 μm | 14 μm | D(90) [2, 7]: 14 μm; D(100) [2, 7]: 42 μm
Cc1cc2c(s1)Nc1ccccc1N=C2N1CCN(C)CC1 [Batch M2-121, 2-methyl-4-(4-methyl-1-piperazinyl)-10H-thieno[2,3-b][1,5]benzodiazepine] | 0.39 g/mL | 6.4 μm | 30 μm | 1.5 | 7.5 μm | 40 μm | –
Cc1cc2c(s1)Nc1ccccc1N=C2N1CCN(C)CC1 [Batch S2-920, 2-methyl-4-(4-methyl-1-piperazinyl)-10H-thieno[2,3-b][1,5]benzodiazepine] | 0.45 g/mL | 7.6 μm | 38 μm | 2.0 | – | – | D(90) [2, 8]: 38 μm; D(100) [2, 8]: 136 μm
Cc1cc2c(s1)Nc1ccccc1N=C2N1CCN(C)CC1 [Olanzapine S4-221, 2-methyl-4-(4-methyl-1-piperazinyl)-10H-thieno[2,3-b][1,5]benzodiazepine] | – | – | – | – | – | – | D(90) ([2]; Table 4): 26 μm; D(100) ([2]; Table 4): 110 μm
Cc1cc2c(s1)Nc1ccccc1N=C2N1CCN(C)CC1 [Batch M7-121, 2-methyl-4-(4-methyl-1-piperazinyl)-10H-thieno[2,3-b][1,5]benzodiazepine] | 0.50 g/mL | 8.3 μm | 42 μm | 2.1 | – | – | D(90) [2, 9]: 40 μm; D(100) [2, 9]: 205 μm
Cc1cc2c(s1)Nc1ccccc1N=C2N1CCN(C)CC1 [Batch M6-020, 2-methyl-4-(4-methyl-1-piperazinyl)-10H-thieno[2,3-b][1,5]benzodiazepine] | 0.41 g/mL | 6.6 μm | 24 μm | 2.0 | 6.5 μm | 24 μm | D(90) [2, 10]: 24 μm; D(100) [2, 10]: 205 μm
Cc1cc2c(s1)Nc1ccccc1N=C2N1CCN(C)CC1 [Batch S1-220, 2-methyl-4-(4-methyl-1-piperazinyl)-10H-thieno[2,3-b][1,5]benzodiazepine] | 0.39 g/mL | 6.1 μm | 26 μm | 1.5 | 5.8 μm | 29 μm | D(90) [2, 11]: 29 μm; D(100) [2, 11]: 142 μm
Cc1cc2c(s1)Nc1ccccc1N=C2N1CCN(C)CC1 [Batch S3-221, 2-methyl-4-(4-methyl-1-piperazinyl)-10H-thieno[2,3-b][1,5]benzodiazepine] | 0.40 g/mL | 6.4 μm | 26 μm | 1.8 | – | – | D(90) [2, 12]: 24 μm; D(100) [2, 12]: 61 μm
Cc1cc2c(s1)Nc1ccccc1N=C2N1CCN(C)CC1 [Batch S1-920, 2-methyl-4-(4-methyl-1-piperazinyl)-10H-thieno[2,3-b][1,5]benzodiazepine] | 0.29 g/mL | 4.1 μm | 11 μm | 1.2 | 3.9 μm | 11 μm | D(90) [2, 13]: 11 μm; D(100) [2, 13]: 21 μm
